The record followed here is article PMC3800014 (Journal of insect physiology, 2013).

What all share (type): cell-based
In test [1] the target is T1, CquiOR1 (CquiOR1•CquiOrco) (Culex quinquefasciatus, UniProt S5RQ84).
T1 sequence (S5RQ84 1-391): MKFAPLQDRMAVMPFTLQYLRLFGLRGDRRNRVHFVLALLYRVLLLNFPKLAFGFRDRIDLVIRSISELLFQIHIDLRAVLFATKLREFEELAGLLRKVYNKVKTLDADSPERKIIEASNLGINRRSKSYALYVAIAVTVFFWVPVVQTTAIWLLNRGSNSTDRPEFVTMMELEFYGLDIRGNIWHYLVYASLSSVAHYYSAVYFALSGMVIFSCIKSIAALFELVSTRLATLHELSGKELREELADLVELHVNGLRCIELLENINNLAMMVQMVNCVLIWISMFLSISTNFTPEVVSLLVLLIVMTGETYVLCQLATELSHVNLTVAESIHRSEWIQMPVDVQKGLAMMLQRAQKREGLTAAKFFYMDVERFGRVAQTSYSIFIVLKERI
The test can be described thus: two-electrode voltage clamp, Xenopus oocytes, inward current. As to conditions: agonist; co-expressed CquiOrco; -70 mV.

The target of test [2] is T1, CquiOR1 (CquiOR1•CquiOrco). In words: Xenopus oocyte recording, UM laboratory. As to conditions: agonist; co-expressed CquiOrco; positive control.
Test [3] has as its target T2, CquiOR44 (CquiOR44•CquiOrco) (Culex quinquefasciatus, UniProt S5RSX8).
T2 sequence (S5RSX8 1-423): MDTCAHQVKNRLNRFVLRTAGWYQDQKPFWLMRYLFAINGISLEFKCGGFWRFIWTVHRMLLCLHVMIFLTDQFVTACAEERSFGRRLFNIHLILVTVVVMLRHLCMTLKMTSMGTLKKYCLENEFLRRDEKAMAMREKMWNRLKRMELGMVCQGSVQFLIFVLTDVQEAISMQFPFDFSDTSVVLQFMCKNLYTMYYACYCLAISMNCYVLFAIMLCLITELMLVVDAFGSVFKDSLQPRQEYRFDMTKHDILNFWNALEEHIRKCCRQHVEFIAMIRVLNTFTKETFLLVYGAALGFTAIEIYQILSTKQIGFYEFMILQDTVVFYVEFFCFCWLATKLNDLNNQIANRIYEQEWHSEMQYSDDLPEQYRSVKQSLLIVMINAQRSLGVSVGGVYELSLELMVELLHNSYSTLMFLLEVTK
The test can be described thus: two-electrode voltage clamp, Xenopus oocytes, inward current. As to conditions: agonist; co-expressed CquiOrco; -70 mV.

The target in test [4] is T3, CquiOR73 (CquiOR73•CquiOrco) (Culex quinquefasciatus, UniProt S5R433).
T3 sequence (S5R433 1-396): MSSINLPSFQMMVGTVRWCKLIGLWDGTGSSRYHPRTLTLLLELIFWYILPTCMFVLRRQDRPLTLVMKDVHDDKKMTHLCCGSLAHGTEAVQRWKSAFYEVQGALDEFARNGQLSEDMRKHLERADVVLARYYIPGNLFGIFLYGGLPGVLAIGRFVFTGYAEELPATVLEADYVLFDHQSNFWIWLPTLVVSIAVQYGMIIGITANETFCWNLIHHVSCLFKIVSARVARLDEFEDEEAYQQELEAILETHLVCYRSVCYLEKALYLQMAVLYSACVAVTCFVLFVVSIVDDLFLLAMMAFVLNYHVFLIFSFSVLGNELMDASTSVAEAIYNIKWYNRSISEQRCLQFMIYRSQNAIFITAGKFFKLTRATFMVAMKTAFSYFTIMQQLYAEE
The description is as above. As to conditions: agonist; co-expressed CquiOrco; -70 mV.

Consider `CCCCCCO` [1-hexanol], for which the “two-electrode voltage clamp, Xenopus oocytes, inward current” value (from here on “two-electrode voltage clamp”) in test [1] was “when CquiOR1 was challenged with 1-hexanol, 1-octen-3-ol, 2-phenoxyethanol, or benzaldehyde”.
The same measure, in the same setting: the result for `C=CC(O)CCCCC` (stereo not drawn) [1-octen-3-ol] reads “when CquiOR1 was challenged with 1-hexanol, 1-octen-3-ol, 2-phenoxyethanol, or benzaldehyde”.
Regarding `CCc1ccc(O)cc1` [4-ethylphenol], the “Xenopus oocyte recording, UM laboratory” value in test [2] was “medium to large responses when challenged with indole, 4-ethylphenol, 4-methylphenol, phenol”.
On to `CC1(C)C(=O)[C@@]2(C)CC[C@@H]1C2` [(+)-fenchone], for which the “two-electrode voltage clamp” value in test [3] is “no chiral discrimination as responses to (+)- and (−)-fenchone did not differ”.
Take `CC1(C)C(=O)[C@]2(C)CC[C@H]1C2` [(−)-fenchone]: the “two-electrode voltage clamp” value in test [3] was “no chiral discrimination as responses to (+)- and (−)-fenchone did not differ”.
Consider `CC(=O)c1ccccc1` [acetophenone], for which the “Xenopus oocyte recording, UM laboratory” value in test [2] is “phenol, acetophenone, benzaldehyde, and 6-methyl-5-hepten-2-one”.
For `C=CCc1ccc(O)c(OC)c1` [eugenol], the “two-electrode voltage clamp” value in test [4] is on record as “eugenol was the best ligand identified for this OR”.
Regarding `CCCCCCCCOC(C)=O` [octyl acetate], the “two-electrode voltage clamp” value in test [4] was “no significant response to the majority of compounds in the panel, except for octyl acetate”.
Consider `CC1CCC(C(C)(C)O)C(O)C1` (stereo not drawn) [p-menthane-3,8-diol], for which, in test [3], the “two-electrode voltage clamp” value is on record as “including known natural repellents like p-menthane-3,8-diol”.
